The nature of the series: Human HepG2 cell viability assay in 384 well format. As to conditions: HepG2 cells, read-out: Inhibition. Further details: dose 125 nL, time 70.5 hour; cytotoxicity at 70.5 h: concentration not given beside the values. It is filed as toxicity, cell-based.
`C[C@@H]1CN(C(=O)C2(Cn3cccn3)CC2)CC[C@@]1(O)C1CC1`: the cytotoxicity at 70.5 h was determined as 26.3%.
In the case of `CN(C)C(=O)N1C[C@@H]2CC[C@H](C1)N(S(=O)(=O)c1cccnc1)C2`, the cytotoxicity at 70.5 h was -9.57%.
For the compound `CCc1ccc(C2CC(=O)Nc3n[nH]cc32)o1` (configuration not stated), the cytotoxicity at 70.5 h came to 0.796%.
In the case of `CC(C)(O)CCc1cccc(C(=O)N2CCC3(CCOCC3)CC2)c1`, the cytotoxicity at 70.5 h was -2.42%.
For `CC(C)n1ccnc1CNC(=O)c1cccc(CCC(C)(C)O)c1` the value was -10.5%.
For `CN(Cc1nc(-c2cccnc2)no1)C(=O)c1cccn1C` the value was 53.7%; for `CC(=O)N[C@@H]1CN(Cc2nc3ccccc3[nH]2)C[C@H]1c1ccc(C)o1`, -8.75%.
The value for `CC(Cc1ccc2c(c1)OCO2)c1cn(CCN2CCCC2)nn1` (configuration not stated) was -12%.
On to `Cc1nnc(CN(C)CC2(O)CCCN(CCC3CCCCC3)C2=O)o1` (configuration not stated), for which the cytotoxicity at 70.5 h worked out at 2.51%.
`Cc1cc(C)nc(N2CCCC(c3nccn3CCCN(C)C)C2)c1` (configuration not stated): the cytotoxicity at 70.5 h is -13.7%.
Consider `Cc1ccccc1CCC1CCCN(C(=O)Cc2cc(=O)[nH]c(N)n2)C1` (configuration not stated), for which the cytotoxicity at 70.5 h worked out at 10.8%.
The value for `CN(Cc1ccccc1Cl)C(C(=O)O)c1ccc(F)c(CO)c1` (configuration not stated) was -7.98%; that for `OC1CCN(c2ccnc(NCCN3CCc4ccccc4C3)n2)C1` (configuration not stated) was -13.9%; that for `O=C(c1coc(COc2cccc3cnccc23)n1)N1CCCCCC1` was -1.27%.
For `O=C(Nc1ccc(I)cc1C(=O)NCCN1CCOCC1)c1ccco1` the value was 8.88%; for `O=C(O)C(c1cccc2c1OCC2)N1CCC(N2CCSCC2)CC1` (configuration not stated), 0.963%.
For `Cc1ccsc1CCNC(=O)C1(Oc2cccnc2C)CCNCC1` the value was -10.2%; for `CC(C)=CCC1(C(=O)O)CCCN(CCC(=O)NC2CC2)C1` (configuration not stated), -25.9%; for `C=C(C)COc1ccccc1CN1CCCC(C(=O)NCCCO)C1` (configuration not stated), -8.32%.
Consider `CN1CC2(CCN(C(=O)c3ccc(=O)n(C)c3)CC2)CC1=O`, for which the cytotoxicity at 70.5 h was 18.9%.
The value for `CC(C)[C@@H]1CN(Cc2ccccc2C#N)C[C@H]1C(=O)O` was 21%; that for `COCCNC(=O)c1cnc(C)nc1C` was 34.7%; that for `COc1ccc(C(=O)N2CCC(C3CCN(c4ncccn4)CC3)C2)o1` (configuration not stated) was 2.75%.
The value for `CC(=O)NCc1nc(Cc2cccc(Cl)c2)nn1C1CCN(C)CC1` was 6.7%; that for `OCc1csc(N2CCCN(Cc3ccc(F)cc3)CC2)n1` was 2.55%.
As to `Cc1ccc(F)cc1-n1c(CN(C)S(C)(=O)=O)n[nH]c1=O`, the cytotoxicity at 70.5 h is -8.73%.
The value for `CCCc1cc(N2CCC(NCC3(O)CCCCC3)CC2)nc(C)n1` was -8.99%; that for `Cc1nc[nH]c1-c1nnc(SCC(=O)O)n1-c1ccccc1C(F)(F)F` was -6.65%.
The value for `Cn1nc(CN2CCC(c3ccncc3)CC2)c2c(Cl)cccc21` was -0.977%.
The value for `CC(C)c1cc(NC(CCO)c2ccccc2)n2nccc2n1` (configuration not stated) was 3.68%.
Take `Cc1nc(CNC(=O)c2ccc3c(c2)nc(N2CCOCC2)n3C)cs1`: the cytotoxicity at 70.5 h is -5.03%.
For `COc1cc(NC2CCN(C3CCS(=O)(=O)CC3)CC2)ncn1` the value was -20.6%; for `CN(CC1COc2ccccc2O1)C(=O)c1ccc(-c2cn[nH]c2)nc1` (configuration not stated), -2.63%.
For `CC(CCc1ccc(O)cc1)NC1CCN(C(=O)C(C)C)CC1` (configuration not stated) the value was -11.4%; for `Cc1nn(CC(=O)N2CCC3(CN(C)C(=O)O3)C2)c(=O)c2ccccc12` (configuration not stated), -15%.
As to `COc1ccc([C@@H]2CN(C(=O)CCCc3cn[nH]c3)C[C@H]2N(C)C)cc1`, the cytotoxicity at 70.5 h was determined as 9.02%.
For `CC(C)N1CCOC(CC(=O)N2CC(c3ccncc3)C2)C1` (configuration not stated) the value was -2.68%.
The value for `O[C@@]1(CNCC2(Cn3ccnc3)CC2)CCCN2CCCC[C@@H]21` was -13.1%.
The value for `C=C(C)COc1ccccc1C(=O)NCCc1nncn1C` was 25.1%; that for `CCCc1nnc(N(C)CC2CCN(CC(C)C)C2)o1` (configuration not stated) was -1.56%.
Take `O=C(O)c1ccnc(-c2ccnc(N3CCCCCC3)n2)c1`: the cytotoxicity at 70.5 h was 17.6%.
For `CCCC1(CO)CCCN(c2ncnc3c2c(C)nn3C)C1` (configuration not stated) the value was -3.54%; for `CC(O)C(=O)N1CCN(c2ccccc2Cl)C(=O)C1` (configuration not stated), 17%; for `Fc1ccc(C2(CNCC(F)F)CCOC2)cc1` (configuration not stated), -2.85%.
The value for `NC(=O)c1ccc(C2CCCN2C(=O)CCc2nc3ccccc3s2)s1` (configuration not stated) was -1.87%.
For `O=C(c1cscn1)N1CCC(Cn2cc(-c3ccsc3)nn2)CC1`, the cytotoxicity at 70.5 h was -8.02%.
The value for `Cc1[nH]c2c(F)cccc2c1CC(=O)N1CCCC(N)CC1` (configuration not stated) was 14.1%; that for `Cc1ccc(CNC(=O)c2ccc(S(=O)(=O)N3C[C@@H]4C[C@H]3CN4)cc2)o1` was -2.7%; that for `O=C1CC2(CCN(CCCF)CC2)CN1Cc1cc(F)cc(F)c1` was 8.23%.
In the case of `c1csc(CCC2CCCCN2Cc2noc(C3CC3)n2)c1` (configuration not stated), the cytotoxicity at 70.5 h is -13%.
The value for `CC(C)c1nnc2sc(CC3CCS(=O)(=O)C3)nn12` (configuration not stated) was -7.56%.
For `COc1ccc(F)c(F)c1CN1CCC2(CC1)[C@H](O)C[C@@H]2OCCN` the value was -7.39%.
For `CCCC1COCCN1Cc1ccc(S(=O)(=O)NC)cc1` (configuration not stated) the value was 7.3%; for `CCN(CC)CCCN1CCN(c2nc(C)cnc2C)CC1`, -7.19%.
As for `CCc1ccc(CN(C)c2cc(COC)nc3ccnn23)cc1`, the cytotoxicity at 70.5 h is -2.38%.
For `CC(C)c1cccc(N2CCCC3(CCC(=O)N(C4CC4)C3)C2)n1` (configuration not stated) the value was -1.84%; for `O=C1CC2(CCN(Cc3ccc(Cl)s3)C2)C(=O)N1` (configuration not stated), -9.8%.
For `COCc1ncc(CN(CCN(C)C)Cc2ccc(C)s2)cn1` the value was -4.43%; for `CCCn1ncnc1C(C)NC(=O)CC1CCN(C(C)C)CC1` (configuration not stated), -4.86%; for `Cc1ccc(N2CCC(N3C[C@@H](CN(C)C)[C@@H](CO)C3)CC2)cc1`, -6.07%.
Consider `O=C(CC1CCc2ccccc21)N1CCC(O)(c2cccnc2)CC1` (configuration not stated), for which the cytotoxicity at 70.5 h was -9.82%.
The value for `O=C1O[C@@H]2CN(CCc3ccccc3)C[C@@H]2N1CCCN1CCOCC1` was -3.23%; that for `O=C(COCC(F)(F)C(F)F)N1CCC2(CCCN(CC3CC3)C2=O)C1` (configuration not stated) was -8.88%; that for `O=C(O)C(c1ccc2c(c1)OCO2)N1CCCC1` (configuration not stated) was -0.492%.
For `Cc1nc[nH]c1C(=O)N1CCCC2(CN(C)C(=O)O2)C1` (configuration not stated) the value was -0.146%.
For `COCCCC1(CO)CCCN(C(=O)c2cnc(C3CC3)nc2)C1` (configuration not stated) the value was -4.81%.
For the compound `COc1ccc(F)c(-c2cc(O)nc(N)n2)c1`, the cytotoxicity at 70.5 h was -9.12%.
For `CCCN(Cc1cccnc1)Cc1ccc(C2CCCCO2)o1` (configuration not stated) the value was -2.3%; for `COCCN1CC(c2nc(CC3CCN(C)CC3)no2)CCC1=O` (configuration not stated), -11.5%.
The value for `Cc1[nH]c2ccc(CNC(=O)c3ccc(CN4CCCC4)o3)cc2c1C` was -7.28%.
On to `O=C(O)[C@@H]1CN(C(=O)c2ccc(O)cc2)C[C@H]1c1cccc(F)c1`, for which the cytotoxicity at 70.5 h was determined as 14.4%.
For `CCn1ccc2ccc(CN3CCCC3c3nc(C(C)C)no3)cc21` (configuration not stated) the value was -10.7%; for `CS(=O)(=O)CCN1CCC2(CCCN(C3CCOCC3)C2=O)C1` (configuration not stated), -5.34%; for `CC(C)CCN1CC2(CCCN(C(=O)c3cscn3)C2)CCC1=O` (configuration not stated), -8.72%.
As to `Cc1noc(C)c1CCC(=O)N1CCN(CCn2cncn2)CC1`, the cytotoxicity at 70.5 h is -1.34%.
For `COc1ccc([C@@H]2CN(C(=O)CCC(F)(F)F)C[C@H]2NC(C)=O)cc1` the value was -5.27%; for `COc1nccc(N2CCN(Cc3ccc(C)cc3)C(=O)C2)c1C#N`, 1.75%.
With `COCCN1CCC(CN(CC2CCCO2)C(=O)COC)CC1` (configuration not stated), the cytotoxicity at 70.5 h is 13.8%.
For `O=S1(=O)COCCN1Cc1ccc(Cl)c(F)c1` the value was -6.23%; for `O=C(c1c[nH]c(=O)c(Cl)c1)N1C[C@@H]2CC[C@H](C1)N(Cc1ccccc1)C2`, -1.59%; for `Cc1cc(C[C@@H]2COC[C@@H]2NC(=O)Cn2c(=O)oc3ccccc32)on1`, 1.37%.
The value for `CCN(CC)S(=O)(=O)N1CCCC(c2ccc(C(=O)O)cc2)C1` (configuration not stated) was -4.81%; that for `CN(C)S(=O)(=O)N1CCC2(CCCN(Cc3ccc(F)cc3)C2=O)C1` (configuration not stated) was -2.15%.
For the compound `CN(C)CCCn1ccnc1C1CCCN(c2cc(N)ncn2)C1` (configuration not stated), the cytotoxicity at 70.5 h is -4.4%.
The value for `CCn1nc(CC(C)C)cc1C(=O)NCCCOC` was -0.898%.
For `CN(C)C(=O)N1C[C@@H]2CC[C@H](C1)N(Cc1ccc3nsnc3c1)C2` the value was -5.73%; for `COc1cc(N2CCCC(c3nccn3CCN(C)C)C2)nc(N)n1` (configuration not stated), -8.19%; for `Cc1ncsc1CCC(=O)NCc1cc2n(n1)CCN(C(=O)N(C)C)C2`, 13.9%.
For `O=C1N(CCCc2ccccc2)CCCC1(O)CNCc1ccccc1` (configuration not stated) the value was -10.4%.
As for `CCn1ccnc1-c1nc2cc(S(=O)(=O)N3CCCC3)ccc2n1C`, the cytotoxicity at 70.5 h was -3.32%.
For `CN(C)C(=O)CN1C[C@@H]2CC[C@H](C1)N(C(=O)CCn1cncn1)C2` the value was -12.6%; for `COc1cccc(C)c1C(=O)N1C[C@@H](CN(C)C)[C@@H](CO)C1`, -4.7%.
For `CCn1nc(C)c(CNC(=O)c2cn(CCC3CCCCN3)nn2)c1C` (configuration not stated) the value was -7.47%; for `Cc1nc(CCCNC(=O)C2CC(=O)N(C3CC3)C2)sc1C` (configuration not stated), 3.65%.
For `O=C(NCCc1ccncc1)C1CCN(Cc2ccco2)CC1` the value was 10.1%.
With `COc1cccn(CC(=O)N(C)CCOc2cc(C)cc(C)c2)c1=O`, the cytotoxicity at 70.5 h was determined as 2.11%.
For `CSc1ccccc1CN1CCCn2nc(CNC(=O)N(C)C)cc2C1` the value was -1.85%.

The record behind these values is ChEMBL document CHEMBL3507680, “University of Dundee, Gates Library screen for HepG2 cell viability”.
